Test results taken from publication PMC4835877, “HM71224, a novel Bruton’s tyrosine kinase inhibitor, suppresses B cell and monocyte activation and ameliorates arthritis in a mouse model: a potential drug for rheumatoid arthritis” (Arthritis Research & Therapy, 2016).

Assays:
[1] = tested on: DBA/1 J mice with collagen-induced arthritis; experiment: Collagen-induced arthritis (CIA) model; type: in vivo, mouse; settings: dexamethasone 0.2 mg/kg once a day
Experimental: All animal experimental protocols were approved by the animal care and use committee of the Hanmi Research Center, and performed in accordance with approved guidelines. Male DBA/1 J mice (9 weeks old; n = 7 per group) were immunized with an emulsion of Complete Freund’s Adjuvant and bovine type II collagen (CII) (total volume, 0.07 mL) via intradermal injection at the base of the tail (day 0). Three weeks later, the mice received a booster immunization comprising bovine CII emulsified in Incomplete Freund’s Adjuvant. […] The arthritis score and body weight were measured three times per week for 2 weeks after administration of the drugs (Additional file 1: Figure S1). The arthritis score was determined by grading each paw from 0 to 4 based on erythema, swelling, and flexion of the joint and was expressed as the sum of the scores of all four paws. Serum levels of IL-6 were measured by Luminex analysis in a bead-based immunoassay (EMD Millipore Corporation). Serum levels of anti-CII and total IgG were measured by ELISA (Chondrex, Seattle, WA, USA; Bethyl Laboratories, Montgomery, TX, USA).
Micro-CT of the hind limbs was performed using a Siemens Inveon Micro-CT/PET scanner (Siemens Medical Solutions, Knoxville, TN, USA).
The hind legs of each mouse were fixed with 10 % formalin, decalcified in 5 % formic acid, and embedded in paraffin. Sections were then cut and stained with hematoxylin and eosin (H&E). The bone erosion index was scored from 0 to 4 according to the following criteria: 0 = no erosion, 1 = mild (focal subchondral erosion), 2 = moderate (multiple subchondral erosions), 3 = high (as above and focal erosion of talus), and 4 = maximum (multiple erosions of tarsal and metatarsal bones).
Figure S1. Experiment design of collagen induced arthritis. Untreated DBA/1J mice (n=7) served as healthy controls (Ctrl). DBA/1J mice (n= 56) were immunized Day 0 and day 21. On day 10 after boosting (i.e. day 31), the induction of CIA was evaluated. […] Immunized mice (n=42) were divided into 6 groups (n=7 in each group). […] CIA, collagen induced arthritis.

[2] = tested on: CD3+ T cells; experiment: T cell signaling, phospho-flow of CD3/CD28-activated PBMCs; type: cell-based, human; settings: CD3- and CD28-conjugated beads
Experimental: For phospho-flow, B cells were activated by crosslinking their BCRs with anti-human IgM antibodies (10 μg/mL; BD Biosciences) for 10 minutes at 37 °C. Cells were then fixed with 2 % paraformaldehyde at 37 °C for 12 minutes, permeabilized, and stained with anti-CD3-FITC (SK7; BD Biosciences), anti-CD20-PerCP-Cy5.5 (H1; BD Biosciences), anti-pBtk (Y223)-Alexa647 (N35-86; BD Biosciences), anti-pPLCγ2 (Y759)-Alexa647 (K86-689.37; BD Biosciences), anti-pSTAT1 (Y701)-Alexa647 (4a; BD Biosciences), anti-pSTAT3 (Y705)-Alexa647 (4/P-STAT3; BD Biosciences), anti-pSTAT5 (Y694)-Alexa647 (47; BD Biosciences), and anti-pERK1/2 (T202/204)-Alexa647 (20A; BD Biosciences) antibodies. The cells were then washed and analyzed on an LSR II flow cytometer (BD Biosciences). Data were analyzed using FlowJo software, version 8.8 (Treestar, Ashland, OR, USA).
Figure S5. Effect of HM71224 on human T cell signaling. […] The expression level of p-STAT1, p-STAT3, p-STAT5, and p-ERK1/2 by CD3+ T cells was then measured by phospho-flow cytometry.

Structure (SMILES)	AS, arthritis score ([1]; D0)	Wt, weight ([1]; D0) [gram]	AS, arthritis score ([1]; D1)	AS, arthritis score ([1]; D4)	AS, arthritis score ([1]; D6)	AS, arthritis score ([1]; D8)	AS, arthritis score ([1]; D12)	AS, arthritis score ([1]; D13)	AS, arthritis score ([1]; D15)	T cell receptor signaling (p-STAT1, p-STAT3 and p-STAT5) [2]	p-ERK1/2 in CD3+ T cells [2]
C[C@@H]1C[C@H]2[C@@H]3CCC4=CC(=O)C=C[C@]4(C)[C@@]3(F)[C@@H](O)C[C@]2(C)[C@@]1(O)C(=O)CO [Dexa, dexamethasone, reference compound]	1.1±0.5	22.9±0.4	0.9±0.5	0.4±0.2	0.3±0.2	0.3±0.2	0.3±0.2	0.4±0.3	0.3±0.2	–	–
C=CC(=O)N1CCC[C@@H](n2nc(-c3ccc(Oc4ccccc4)cc3)c3c(N)ncnc32)C1 [PCI-32765, Ibrutinib]	–	–	–	–	–	–	–	–	–	not affected	inhibited
C[C@@H]1CCN(C(=O)CC#N)C[C@@H]1N(C)c1ncnc2[nH]ccc12 [Tofacitinib]	–	–	–	–	–	–	–	–	–	significantly suppressed	–
